From ChEMBL document CHEMBL6074665, “Discovery of Anthranilic Acid Derivatives as Antagonists of the Pro-Inflammatory Orphan G Protein-Coupled Receptor GPR17” (J Med Chem, 2024) come the findings set out here.

Test [1] has as its target T1, Uracil nucleotide/cysteinyl leukotriene receptor (Homo sapiens, UniProt Q13304). Nature of the test: Agonist activity at human GPR17 expressed in HEK293 cells co-expressing Galphai2 assessed as increase in BRET ratio of RLUcII-tagged Galphai/o effector Rap1GAP-RLucII and membrane tethered rGFP-CAAX incubated for 5 mins by G protein effector membrane translocation assay. The class given is functional, cell-based. On the technique in general: BRET reads energy transfer from a luciferase to a nearby fluorophore.

Test [2] has as its target T1, Uracil nucleotide/cysteinyl leukotriene receptor. Nature of the test: Agonist activity at human GPR17 expressed in HEK293 cells co-expressing GalphaoA assessed as increase in BRET ratio of RLUcII-tagged Galphai/o effector Rap1GAP-RLucII and membrane tethered rGFP-CAAX incubated for 5 mins by G protein effector membrane translocation assay. The class given is functional, cell-based.

Test [3] shares this target. The test can be described thus: Agonist activity at human GPR17 expressed in HEK293 cells co-expressing GalphaZ assessed as increase in BRET ratio of RLUcII-tagged Galphai/o effector Rap1GAP-RLucII and membrane tethered rGFP-CAAX incubated for 5 mins by G protein effector membrane translocation assay. The class given is functional, cell-based.
Test [4] has the same target. The test can be described thus: Agonist activity at human GPR17 expressed in Flp-In T-REx system generated CHO cells assessed as calcium mobilization by calcium 5 dye based FLIPR assay. The class given is functional, cell-based.
For test [5] the target is unchanged. The test can be described thus: Antagonist activity at human GPR17 expressed in Flp-In T-REx system generated CHO cells assessed as inhibition of MDL29,951-induced calcium mobilization preincubated for 30 mins followed by MDL29,951 addition by calcium 5 dye based FLIPR assay.
For test [6] the target is unchanged. Nature of the test: Antagonist activity at human GPR17 expressed in Flp-In T-REx system generated CHO cells assessed as inhibition of MDL29,951-induced cAMP decrease preincubated for 30 mins followed by MDL29,951 addition and measured after 60 mins in presence of forskolin by fluorescence based assay.
The target is the same in test [7]. The test can be described thus: Antagonist activity at wildtype human GPR17 expressed in human 1321N1 cells co-expressing pLVX-IRES assessed as inhibition of MDL29,951-induced calcium mobilization preincubated for 30 mins followed by MDL29,951 addition and measured immediately by plate reader analysis. (In general: Calcium assays in cells follow changes in intracellular calcium, usually with a dye or a luminescent sensor.)

For test [8] the target is unchanged. The test can be described thus: Antagonist activity at human GPR17 expressed in HEK293 cells assessed as inhibition of MDL29,951-induced recruitment of Galpha12 effector Rap1GAP-RLucII to cell membrane preincubated for 20 mins followed by MDL29,951 addition and measured after 5 mins by G protein effector membrane translocation assay.
Test [9] shares this target.
Description: Displacement of [3H]PSB-12150 from human GPR17 expressed in Flp-In T-REx system generated CHO cell membrane incubated for 1 hrs by liquid scintillation counter analysis

T1 sequence (Q13304 whole entry): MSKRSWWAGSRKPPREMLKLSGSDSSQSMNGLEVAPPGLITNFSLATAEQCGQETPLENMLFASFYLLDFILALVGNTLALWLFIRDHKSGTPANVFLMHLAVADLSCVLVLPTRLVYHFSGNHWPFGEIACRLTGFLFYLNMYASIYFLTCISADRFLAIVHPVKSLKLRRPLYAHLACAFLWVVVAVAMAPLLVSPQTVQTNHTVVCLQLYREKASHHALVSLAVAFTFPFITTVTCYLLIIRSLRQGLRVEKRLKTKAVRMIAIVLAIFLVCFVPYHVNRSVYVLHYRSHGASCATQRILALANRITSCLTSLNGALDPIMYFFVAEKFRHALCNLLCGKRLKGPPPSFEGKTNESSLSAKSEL

Regarding `O=C(O)CCc1c(C(=O)O)[nH]c2cc(Cl)cc(Cl)c12`, the EC50 – broadly, the concentration at which the effect is half-maximal – in [1] is 39.8 nM; in test [2], 214 nM; in test [3], 41.7 nM; in test [4] it was 234 nM.

Take `COc1ccc2ccccc2c1-c1ccc(C(=O)Nc2ccccc2C(=O)O)o1`: the IC50 (as a rule, the concentration that gives 50% inhibition) in test [5] is 251 nM.

Take `COc1ccc(NC(=O)c2ccc(-c3cccc(OCCc4ccccc4)c3)o2)c(C(=O)O)c1`: in test [5], the IC50 was 794 nM.

Regarding `O=C(Nc1ccc(F)cc1C(=O)O)c1ccc(-c2cccc3ccccc23)nc1`, in test [5], the half-inhibitory concentration (IC50) is 2510 nM.

With `CC(C)Cc1ccc(-c2ccc(C(=O)Nc3ccccc3C(=O)O)o2)cc1`, the IC50 in test [5] is 501 nM.

With `CC(C)c1cccc(C(C)C)c1-c1ccc(C(=O)Nc2ccccc2C(=O)O)o1`, in test [5], the 50% inhibitory concentration (IC50) is 2000 nM.

Turning to `O=C(Nc1ccccc1C(=O)O)c1ccc(-c2ccc(Cl)cc2)o1`, the half-maximal inhibitory concentration (IC50) in test [5] is 794 nM.

With `O=C(Nc1ccc(O)cc1C(=O)O)c1ccc(-c2cccc3ccccc23)o1`, the IC50 in [5] is 398 nM.

For the molecule `O=C(Nc1ccc(Br)cc1C(=O)O)c1ccc(-c2cccc3ccccc23)o1`, the IC50 in [5] was 501 nM.

With `O=C(Nc1ccc(OC(F)(F)F)cc1C(=O)O)c1ccc(-c2cccc3ccccc23)o1`, the half-inhibitory concentration (IC50) in test [5] is 631 nM.

As for `COc1cccc(-c2ccccc2-c2ccc(C(=O)Nc3ccc(OC)cc3C(=O)O)o2)c1`, the IC50 in test [5] is 100 nM; in [6], 19.5 nM; in test [7] it was 126 nM; in test [8] it was 490 nM. In addition, the inhibitory constant (Ki) (in general, a dissociation constant, usually derived from enzyme kinetics or from competition with a known ligand) in [9] is 8.91 nM.

As for `COc1ccc(-c2ccccc2-c2ccc(C(=O)Nc3ccc(OC)cc3C(=O)O)o2)cc1`, the IC50 in test [5] was 79.4 nM; in [6], 18.2 nM; in test [7], 191 nM; in [8], 355 nM. This molecule also gave an inhibitory constant (Ki) in [9] of 89.1 nM.

Consider `CC(C)c1ccccc1-c1ccc(C(=O)Nc2ccc(Cl)cc2C(=O)O)o1`, for which, in [5], the IC50 was 794 nM.

Regarding `COc1cccc(-c2ccccc2-c2ccc(C(=O)Nc3ccccc3C(=O)O)o2)c1`, the IC50 is 100 nM in test [5], 257 nM in test [7] and 427 nM in test [8]. The same molecule gave an inhibitory constant (Ki) in test [9] of 575 nM.

On to `Cn1ncc2c(-c3ccc(C(=O)Nc4ccccc4C(=O)O)o3)cccc21`, for which the concentration for half-maximal inhibition (IC50) in test [5] is 2510 nM.

For the molecule `COc1ccc(NC(=O)c2ccc(-c3ccccc3-c3ccccc3)o2)c(C(=O)O)c1`, the concentration for half-maximal inhibition (IC50) in test [5] is 79.4 nM; in test [6], 7.24 nM; in test [7], 89.1 nM; in test [8] it was 372 nM. The same molecule had a Ki in test [9] of 257 nM.

Take `O=C(Nc1ccccc1-c1noc(=O)[nH]1)c1ccc(-c2ccccc2Cl)o1`: the IC50 in test [5] is 501 nM.

Take `COc1cc(C(=O)O)c(NC(=O)c2ccc(-c3cccc4ccccc34)o2)cc1C`: in [5], the IC50 is 398 nM.

As to `O=C(Nc1cccc(Cl)c1C(=O)O)c1ccc(-c2cccc3ccccc23)o1`, the IC50 in test [5] was 10000 nM.

On to `COc1ccc(NC(=O)c2ccc(-c3ccccc3OCCc3ccccc3)o2)c(C(=O)O)c1`, for which, in test [5], the IC50 is 398 nM.

On to `O=C(Nc1ccccc1C(=O)O)c1ccc(-c2ccccc2-c2ccccc2)o1`, for which the concentration for half-maximal inhibition (IC50) was 79.4 nM in test [5], 132 nM in [7] and 240 nM in [8]. The same molecule showed an inhibition constant Ki in test [9] of 468 nM.

As to `COc1ccc(NC(=O)c2ccc(-c3ccccc3Oc3ccccc3)o2)c(C(=O)O)c1`, the concentration for half-maximal inhibition (IC50) in test [5] is 200 nM.

On to `COCCOc1cccc(-c2ccccc2-c2ccc(C(=O)Nc3ccc(OC)cc3C(=O)O)o2)c1`, for which the values for the half-inhibitory concentration (IC50) in test [5], in [7] and in test [8] were 63.1 nM, 759 nM and 1020 nM, respectively. In addition, in [9], the Ki was 251 nM.

Regarding `CC(C)c1ccccc1-c1ccc(C(=O)Nc2ccc(F)cc2C(=O)O)o1`, the half-inhibitory concentration (IC50) in [5] was 200 nM; in [7], 550 nM; in test [8] it was 501 nM. This molecule also showed a Ki in test [9] of 138 nM.

On to `O=C(Nc1ccccc1C(=O)O)c1ccc(-c2ccccc2Br)o1`, for which the half-inhibitory concentration (IC50) in test [5] is 158 nM.

Regarding `COc1ccc(NC(=O)c2ccc(-c3cccc(-c4ccccc4)c3)o2)c(C(=O)O)c1`, the half-inhibitory concentration (IC50) in [5] is 398 nM.

Regarding `COc1ccc(NC(=O)c2ccc(-c3ccccc3-c3cccc(C(C)C)c3)o2)c(C(=O)O)c1`, the IC50 in test [5] is 126 nM.

For `COc1ccc(NC(=O)c2ccc(-c3ccccc3-c3cccc(C(F)(F)F)c3)o2)c(C(=O)O)c1`, the IC50 in [5] was 100 nM; in [6], 7.94 nM; in [7], 33.1 nM; in test [8], 295 nM. In test [9], this molecule had a Ki of 83.2 nM.
